Source: BindingDB's records for doi:10.1124/jpet.102.044826 (Taisho Pharmaceutical, 2003)
pIC50: −log10 of the molar value.

Experiments:
[1] = biological target: T1, Alpha-1A adrenergic receptor (Rattus norvegicus, UniProt P43140)
T1 sequence (P43140 whole entry): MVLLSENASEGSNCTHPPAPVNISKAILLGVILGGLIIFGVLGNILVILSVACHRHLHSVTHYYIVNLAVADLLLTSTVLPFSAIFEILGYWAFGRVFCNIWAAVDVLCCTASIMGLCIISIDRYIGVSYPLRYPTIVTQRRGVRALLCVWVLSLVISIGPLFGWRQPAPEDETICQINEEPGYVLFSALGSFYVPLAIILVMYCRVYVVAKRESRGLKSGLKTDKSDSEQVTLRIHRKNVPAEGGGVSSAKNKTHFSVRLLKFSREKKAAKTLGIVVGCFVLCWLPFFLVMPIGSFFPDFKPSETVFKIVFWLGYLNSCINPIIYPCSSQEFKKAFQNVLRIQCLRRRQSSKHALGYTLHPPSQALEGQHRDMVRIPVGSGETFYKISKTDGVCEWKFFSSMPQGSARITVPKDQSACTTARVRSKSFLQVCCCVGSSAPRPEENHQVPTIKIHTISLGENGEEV

[2] = biological target: T2, Alpha-2C adrenergic receptor (Homo sapiens, UniProt P18825)
T2 sequence (P18825 whole entry): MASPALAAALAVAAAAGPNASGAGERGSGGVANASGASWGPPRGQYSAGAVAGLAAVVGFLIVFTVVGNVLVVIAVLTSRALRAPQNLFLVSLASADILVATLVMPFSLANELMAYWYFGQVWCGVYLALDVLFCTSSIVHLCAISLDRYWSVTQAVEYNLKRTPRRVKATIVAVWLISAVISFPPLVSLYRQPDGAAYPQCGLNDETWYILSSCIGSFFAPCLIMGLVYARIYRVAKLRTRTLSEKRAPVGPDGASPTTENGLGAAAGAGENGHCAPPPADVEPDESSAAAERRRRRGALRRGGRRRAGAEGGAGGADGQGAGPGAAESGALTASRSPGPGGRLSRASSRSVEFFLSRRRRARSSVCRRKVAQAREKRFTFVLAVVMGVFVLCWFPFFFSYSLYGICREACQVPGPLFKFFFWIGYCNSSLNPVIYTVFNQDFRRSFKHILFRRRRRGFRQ

pIC50 [1]: 6.20 | pIC50 [2]: 6.00
Compound: COc1ccc2ccccc2c1CCCCN1CCN(C[C@H](c2ccc(F)cc2)N2CCN(C(C)C)CC2)CC1 [MCL0129]
